# Tested on: TA1537
# Assay: Ames test (Ames MPF microplate format) without metabolic activation, toxicity to tester assessed by transparency index T from plate image
# Details: for transparency index T: TA1537, no metabolic activation, average of three assessment plates, FIG. 14, T smaller than 1 means high transparency (cells dead)
# Method: A tester (bacterium having amino acid-requiring mutation, for example, Salmonella typhimurium: a TA100 strain, a TA98 strain, a TA1535 strain, or a TA1537 strain, Escherichia coli: a WP2uvrA strain or the like) that is used is inoculated in 60 mL of Nutrient broth medium, and is shaken and cultured at 37° C. for 9 to 10 hours to be proliferated.
# The test substance prepared in the step 2A is dissolved or suspended in an adequate medium, and the resultant solution is diluted by using the medium in staged to prepare concentration series of the test substance solution. In a case where the same test substance is assessed with six concentrations different from each other, six test substance solutions having concentrations different from each other are prepared.
# The medium used in preparation of the test substance solution, the concentration series of the test substance solution, and the solution of the positive control compound (collectively referred to as “test substance solution or the like”) are put into individual wells of a 24-well plate (a plate having 24 wells) by 10 μL.
# 0.175 to 0.7 mL of the tester culture solution (typically at a concentration exceeding 1×10^9 cells/mL) and 6.83 to 6.3 mL of a medium (minimal medium in which a carbon source is added and which is deficient in amino acid) are mixed. The resultant mixture is referred to as a preparation bacterial solution under conditions of the absence of metabolic activation. […]
# Specifically, first, an angle θ1 between the centroid vector V1 and the first reference vector V2 and an angle θ2 between the centroid vector V1 and the second reference vector V3 are compared. In a case where the angle θ1 is equal to or smaller than the angle θ2, a transparency index T is calculated based on an expression (1). In a case where the angle θ2 is larger than the angle θ1, the transparency index T is calculated based on an expression (2). […]
structure (smiles),measurement,setting,value
ClCc1ccc(Cl)cc1 [4-chlorobenzyl chloride],toxicity to the tester (cells),"TA1537, 1.95-2,000 μg/mL in DMSO, no metabolic activation, conclusion from transparency index T",toxic to the tester
same,transparency index T,"section Se6, test substance 500 μg/mL",reduced
same,transparency index T,"section Se7, test substance 2,000 μg/mL",reduced
